Where a name gives a salt, the structure may show the parent alone.
Molecular target: T1, thromboxane synthetase from rabbit platelet microsomes (Oryctolagus cuniculus, UniProt G1TAZ9)
T1 construct: thromboxane synthetase from rabbit platelet microsomes; from tissue; host or cells: rabbit platelet microsomes
T1 sequence (G1TAZ9 1-530): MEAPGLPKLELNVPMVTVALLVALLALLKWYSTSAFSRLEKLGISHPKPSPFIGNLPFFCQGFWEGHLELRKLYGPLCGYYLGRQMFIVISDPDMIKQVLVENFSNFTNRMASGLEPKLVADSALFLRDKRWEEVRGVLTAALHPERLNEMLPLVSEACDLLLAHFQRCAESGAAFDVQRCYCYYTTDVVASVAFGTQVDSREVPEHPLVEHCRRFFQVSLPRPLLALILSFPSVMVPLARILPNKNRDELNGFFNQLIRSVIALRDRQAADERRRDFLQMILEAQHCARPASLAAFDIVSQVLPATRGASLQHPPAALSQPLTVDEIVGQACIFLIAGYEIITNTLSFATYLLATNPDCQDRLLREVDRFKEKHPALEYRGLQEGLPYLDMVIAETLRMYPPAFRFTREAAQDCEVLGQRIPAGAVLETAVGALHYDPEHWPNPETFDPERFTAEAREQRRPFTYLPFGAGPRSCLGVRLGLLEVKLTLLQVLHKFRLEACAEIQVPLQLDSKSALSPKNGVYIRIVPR
Assay: inhibition of thromboxane synthetase from rabbit platelet microsomes
Type: biochemical
Details: standard laboratory tests, read-out: molar concentration producing 50% inhibition of thromboxane synthetase
From the text: For example, in standard laboratory tests, 1-(7-carboxy-7-methyl-2-octynyl)imidazole hydrochloride produce a 50% inhibition of thromboxane synthetase from rabbit platelet microsomes at the molar concentrations of 9×10^-9.

CC(C)(CCCC#CCn1ccnc1)C(=O)O [Example 2, 1-(7-carboxy-7-methyl-2-octynyl)imidazole hydrochloride]
IC50: 9 nM
